The values that follow come from US12551562B2, “Methods and compositions for irreversible enzyme inhibition” (TRITERPENOID THERAPEUTICS, INC., priority 2019, dated 2026).

Assay [1] concerns the target T1, His-GSTP (Homo sapiens, UniProt P09211).
T1 construct: made in house; host or cells: E. coli
In words: Modification of His-GSTP by triterpenoids, LC-MS/MS of tryptic digests. Type of assay: binding. Here is the method: His-GSTP was expressed in E. coli as described previously. Purified His-GSTP captured on nickel beads was incubated with a range of concentrations of CDDO-Im (50 nM-10 μM) in phosphate buffer, pH 7.4 for 16 h. CDDO-Me (0.5 mM) was used as a positive control. The beads were then washed 5 times with 1000 μL phosphate buffer. The protein was subjected to on-bead tryptic digestion. In brief, a suspension beads in 30 μL of 50 mM ammonium bicarbonate buffer was incubated with 20 ng of trypsin for 16 h at 37° C. and the digest was analyzed by LC-MS/MS.
(§1) The tryptic peptides were analyzed by a Triple TOF 5600 mass spectrometer (Sciex). Samples were reconstituted in 50 μL 0.1% formic acid (FA) and 2 μL of samples were delivered into the instrument using an Eksigent Nano-LC system mounted with a nanoACQUITY UPLC Symmetry C18 Trap Column and an analytical BEH C18 nanoACQUITY Column (Waters, MA, USA). A NanoSpray III source was fitted with a 10 μm inner diameter PicoTip emitter (New Objective). Samples were loaded in 0.1% formic acid onto the trap, which was then washed with 2% ACN/0.1% FA for 10 min at 2 μL/min before switching in-line with the analytical column. A gradient of 2-50% (v/v) ACN/0.1% (v/v) FA over 90 min was applied to the column at a flow rate of 300 nL/min. Spectra were acquired automatically in positive ion mode using information-dependent acquisition, using mass ranges of 400-1600 amu in MS and 100-1400 amu in MS/MS. Up to 25 MS/MS spectra were acquired per cycle (approximately 10 Hz) using a threshold of 100 counts per s, with dynamic exclusion for 12 s and rolling collision energy. Sequence coverage was determined using ProteinPilot software, v4.0 and the most recent version of the SwissProt database.

In assay [2] the target is T2, HSA (Homo sapiens, UniProt P02768).
T2 construct: contains 585 amino acids (corresponding to 25-609 of P02768); purchased Sigma-Aldrich
The assay is described as follows: Modification of HSA by triterpenoids, LC-MS/MS of tryptic digests. The assay is classed as binding. As to the method: Triterpenoids were dissolved in DMSO to make up 1 mM stock solutions, followed by dilutions in phosphate buffer (10 mM, pH 7.4) and incubated with recombinant HSA (0.6 mM, 50 μL) in sealed Eppendorf tubes at 37° C. for 16 h. The molar ratios of drug to protein were 0.00001:1, 0.0001:1, 0.001:1, 0.01:1, 0.1:1, and 1:1. Protein was precipitated twice with 9 volumes of ice-cold methanol to remove free drug, resuspended in 50 μL phosphate buffer and then reduced with 10 mM dithiothreitol (15 min) and alkylated with 55 mM iodoacetamide (15 min) at room temperature. The protein was precipitated with methanol once more and finally dissolved in 100 μL 50 mM ammonium hydrogencarbonate, and 165 μg […] of protein was digested with 1.6 μg trypsin overnight at 37° C.
To examine the time-dependent modification of HSA by triterpenoids, 10 μM triterpenoids was incubated with HSA (0.6 mM, 300 μL) at 37° C. Aliquots of 50 μL were removed after 10, 30, 60, and 180 minutes and processed for LC-MS/MS analysis.
(§2) The tryptic peptides were analyzed by a Triple TOF 5600 mass spectrometer (Sciex). […] Sequence coverage was determined using ProteinPilot software, v4.0 and the most recent version of the SwissProt database.

In assay [3] the target is T3, recombinant Keap1 (Homo sapiens, UniProt Q14145).
T3 construct: made in house
The assay is described as follows: Modification of Keap1 by triterpenoids, LC-MS/MS of tryptic digests. Type of assay: binding. The note with it: 100 μM, 16 h. As to the method: Triterpenoids were dissolved in DMSO to make up 1 mM stock solutions, followed by dilutions in phosphate buffer (10 mM, pH 7.4) and incubated with recombinant Keap1 proteins produced in house at 37° C. for 16 h. The final concentration of triterpenoids was 100 μM. The mixture was then purified by 1D-gel electrophoresis using an established protocol, followed by in gel-digestion. The digests were further purified by C18-ziptiping and analyzed by LC-MS/MS.
as §1, with “Spectra were acquired automatically in positive ion mode using information-dependent acquisition, using mass ranges of 400-1600 amu in MS and 100-1400 amu in MS/MS. Up to 25 MS/MS spectra were acquired per cycle (approximately 10 Hz) using a threshold of 100 counts per s, with dynamic exclusion for 12 s and rolling collision energy.” left out

Assay [4] has as its target T4, LONP protein (Homo sapiens, UniProt P36776).
T4 construct: Professor John Letterio (supplied; not a vendor)
T4 sequence (P36776 68-959): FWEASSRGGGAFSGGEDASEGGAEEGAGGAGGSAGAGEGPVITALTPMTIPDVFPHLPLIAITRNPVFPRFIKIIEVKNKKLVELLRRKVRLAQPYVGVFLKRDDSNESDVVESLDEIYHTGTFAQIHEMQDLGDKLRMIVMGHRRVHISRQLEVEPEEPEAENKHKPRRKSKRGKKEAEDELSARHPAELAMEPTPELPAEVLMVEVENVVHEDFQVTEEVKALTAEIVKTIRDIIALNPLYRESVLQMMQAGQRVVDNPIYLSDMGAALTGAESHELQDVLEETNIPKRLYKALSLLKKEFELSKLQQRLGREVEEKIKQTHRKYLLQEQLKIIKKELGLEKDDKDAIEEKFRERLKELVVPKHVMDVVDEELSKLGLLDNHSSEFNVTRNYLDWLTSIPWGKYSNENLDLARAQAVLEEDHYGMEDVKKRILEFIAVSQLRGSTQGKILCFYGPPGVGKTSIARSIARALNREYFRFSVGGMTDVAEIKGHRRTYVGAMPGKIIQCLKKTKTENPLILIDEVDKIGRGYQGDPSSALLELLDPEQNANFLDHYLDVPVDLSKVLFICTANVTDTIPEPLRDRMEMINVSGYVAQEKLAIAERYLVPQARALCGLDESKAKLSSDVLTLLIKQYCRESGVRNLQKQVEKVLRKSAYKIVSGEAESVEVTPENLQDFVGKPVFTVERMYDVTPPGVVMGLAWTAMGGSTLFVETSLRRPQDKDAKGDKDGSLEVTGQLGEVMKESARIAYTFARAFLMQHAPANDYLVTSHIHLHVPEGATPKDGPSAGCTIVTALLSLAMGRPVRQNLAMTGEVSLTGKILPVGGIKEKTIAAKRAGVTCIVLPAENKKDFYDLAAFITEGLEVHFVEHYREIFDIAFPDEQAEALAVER
In words: Modification of LONP by triterpenoids, LC-MS/MS of tryptic digests. The assay is classed as binding. The note with it: 100 μM, 16 h; lysine (3), cysteine (3), tyrosine (2). As to the method:
The LONP protein (Professor John Letterio) was first purified by buffer exchange using spin filters (3K MWCO). 10 μg protein was then incubated with CDDO-2P-Im (100 μM) in phosphate buffer (10 mM, pH 7.4) at 37° C. for 16 h. The mixture was then purified by 1D-gel electrophoresis using an established protocol, followed by in gel-digestion. The digests were further purified by C18-ziptiping and analyzed by LC-MS/MS.
as §1, with “Spectra were acquired automatically in positive ion mode using information-dependent acquisition, using mass ranges of 400-1600 amu in MS and 100-1400 amu in MS/MS. Up to 25 MS/MS spectra were acquired per cycle (approximately 10 Hz) using a threshold of 100 counts per s, with dynamic exclusion for 12 s and rolling collision energy.” left out

Assay [5] deals with Epstein-Barr virus-transformed B-cell lines. The assay is described as follows: Modification of B cell intracellular proteins by triterpenoids, proteomics LC-MS/MS. The assay is classed as cell-based, human. As to the method:
Epstein-Barr virus-transformed B-cell lines were generated with previously described methods by incubating PBMC with supernatant from the Epstein-Barr virus-producing cell line B9-58. B cells were maintained in F1 medium at 37° C., 5% CO2. Cells were plated into an 8-well plate at a concentration of 1×10^6 cells/ml and treated with triterpenoids at different concentrations (0, 1, 10 μM) for 16 hours. 200 μL cells were then plated (1×10^5 cells/well) into a 96-well plate, [^3H]-thymidine (0.5 μCi/well) was then added and incubated for 16 hours. Cell was harvested and the proliferative responses were measured by [^3H]-thymidine incorporation. For the remaining cells, supernatants were removed for ELISA (TNFα, IL10, and IFNγ) and proteomics analysis. The cells were then washed in PBS and lysed with 2D lysis buffer (40 mM Tris base, 7M urea, 2M thiourea, 4% (w/v) CHAPS, and 1% DTT). Cell lysates were sonicated and centrifuged at 18000 rpm for 20 minutes at […]. Supernatants were collected and the protein concentrations were measured by BCA assay. Proteins were denatured and processed for mass spectrometric analysis.
as §2

T1 sequence (P09211 whole entry): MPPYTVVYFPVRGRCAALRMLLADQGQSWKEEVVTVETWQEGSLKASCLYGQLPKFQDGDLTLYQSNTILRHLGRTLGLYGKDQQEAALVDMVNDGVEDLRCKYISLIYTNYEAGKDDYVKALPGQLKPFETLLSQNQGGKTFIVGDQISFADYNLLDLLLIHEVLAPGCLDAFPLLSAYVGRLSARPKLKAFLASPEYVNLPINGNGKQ
T2 sequence (P02768 25-609): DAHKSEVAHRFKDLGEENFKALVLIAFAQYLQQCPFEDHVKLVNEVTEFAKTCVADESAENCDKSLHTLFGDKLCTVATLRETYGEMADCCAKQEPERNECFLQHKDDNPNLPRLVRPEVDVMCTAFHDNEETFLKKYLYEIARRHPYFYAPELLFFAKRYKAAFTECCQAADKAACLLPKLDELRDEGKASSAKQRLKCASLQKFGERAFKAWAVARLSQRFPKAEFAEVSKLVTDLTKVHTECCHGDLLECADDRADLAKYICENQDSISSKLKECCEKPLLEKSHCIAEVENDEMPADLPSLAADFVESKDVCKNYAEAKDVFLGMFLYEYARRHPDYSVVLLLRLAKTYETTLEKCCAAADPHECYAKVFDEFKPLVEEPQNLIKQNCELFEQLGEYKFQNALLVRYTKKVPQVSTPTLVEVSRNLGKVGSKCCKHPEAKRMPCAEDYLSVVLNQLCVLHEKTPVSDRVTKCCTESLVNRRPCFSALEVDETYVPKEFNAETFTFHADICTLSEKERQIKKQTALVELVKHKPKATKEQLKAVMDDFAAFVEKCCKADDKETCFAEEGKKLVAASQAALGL
T3 sequence (Q14145 whole entry): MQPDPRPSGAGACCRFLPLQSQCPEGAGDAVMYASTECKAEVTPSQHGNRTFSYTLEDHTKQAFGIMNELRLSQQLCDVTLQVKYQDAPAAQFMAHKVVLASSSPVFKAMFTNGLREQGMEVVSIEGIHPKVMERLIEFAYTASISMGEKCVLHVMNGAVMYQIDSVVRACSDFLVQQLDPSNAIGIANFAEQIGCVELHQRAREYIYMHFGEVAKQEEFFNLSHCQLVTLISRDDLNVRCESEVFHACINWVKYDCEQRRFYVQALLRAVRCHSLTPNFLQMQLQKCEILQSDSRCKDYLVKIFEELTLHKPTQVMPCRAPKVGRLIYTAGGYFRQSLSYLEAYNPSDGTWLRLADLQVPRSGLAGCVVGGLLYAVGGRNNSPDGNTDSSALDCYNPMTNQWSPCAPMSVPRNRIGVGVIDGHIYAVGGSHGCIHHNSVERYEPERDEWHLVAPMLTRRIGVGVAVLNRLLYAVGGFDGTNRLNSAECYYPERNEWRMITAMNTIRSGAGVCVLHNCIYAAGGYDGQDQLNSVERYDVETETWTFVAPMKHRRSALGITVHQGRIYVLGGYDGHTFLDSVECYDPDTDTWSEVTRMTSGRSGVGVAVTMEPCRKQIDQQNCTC

`CC1(C)CC[C@]2(C(=O)n3cnc(-c4ccccn4)c3)CC[C@]3(C)[C@H](C(=O)C=C4[C@@]5(C)C=C(C#N)C(=O)C(C)(C)[C@@H]5CC[C@]43C)[C@@H]2C1` [CDDO-2P-Im, 1-[2-Cyano-3,12-dioxooleana-1,9(11)-dien-28-oyl]-4(-pyridin-2-yl)-1H-imidazole]: the “covalent binding to GSTP, dependence on concentration” value in assay [1] (16 hour incubation at 37° C.) is on record as “bind to GSTP in a similar manner”. The “plateau of binding to GSTP” value in assay [1] (in comparison to CDDO-Im, 16 hour incubation at 37° C., FIG. 1C/1D) is “binding does not plateau above 5 μM”. The “preferred binding site on GSTP” value in assay [1] (increasing drug concentrations, 16 hour incubation at 37° C., FIG. 1D) is recorded as “Cys48”. Moreover, the “number of CDDO-modified HSA peptides” value in assay [2] (500 μM, 16 h, lysine (9), arginine (2), serine (7), tyrosine (5)) is 23. In assay [3], the “modification of Cys151 of Keap1” value is recorded as “not detected”. The “number of binding sites identified on Keap1” value in assay [3] (phosphate buffer pH 7.4) is 8. The “number of modified LONP peptides” value in assay [4] is 8. The “number of modified B cell proteins identified” value in assay [5] (10 μM for 16 hours) is given as 32. Besides, in assay [5] (B cells treated with 10 μM for 16 hours), the “modification of the 4 active cysteine residues of PPIA” value was “all modified”.
Turning to `CC1(C)CC[C@]2(C(=O)n3ccnc3)CC[C@]3(C)[C@H](C(=O)C=C4[C@@]5(C)C=C(C#N)C(=O)C(C)(C)[C@@H]5CC[C@]43C)[C@@H]2C1` [CDDO-Im, 1-(2-cyano-3,12-dioxooleana-1,9(11)-dien-28-oyl) imidazole], in assay [1] (16 hour incubation at 37° C.), the “covalent binding to GSTP, dependence on concentration” value was “concentration-dependent”. Also, the “lowest concentration at which adducts with GSTP were detectable” value in assay [1] (phosphate buffer pH 7.4, 16 h, 50 nM-10 μM tested) came out at 50 nM. Further, the “site of the simple Michael adduct (CDDO carboxylate, +491.5 amu) on GSTP” value in assay [1] (tryptic digests of treated GSTP) was “only detected on Cys48”. Besides, in assay [2] (normalized ion counts of modified peptides), the “modification of HSA, dependence on concentration and time” value is “concentration- and time-dependent”.
